The conditions of data set [1]: in vivo; cited from earlier work.
Data set [2] relates to passive cutaneous anaphylaxis. The data set can be described thus: PCA test on the rat, intravenous administration just before challenge with antigen. It is filed as in vivo, rat (male Sprague Dawley). Particulars: immediately before challenge; for inhibition (%) / ED50 (conf. lim) P = 0.05: i.v. As for the experimental part:
(§1) The serum, obtained from rats actively sensitized with ovalbumin (antigen) and suitably diluted, was injected intradermically into the shaven back of male Sprague Dawley rats (2 wheals per rat).
(§2) The rats were treated intravenously after 24 hours with a solution of ovalbumin and Evans blue. Thirty minutes later they were killed and the diameter and intensity of the blue ring formed at the site of the intradermic injection were measured.
(§3) For each treated group (5 per group) the % inhibition was then calculated with respect to the control group.
The pharmacological screening was effected by administering the compounds of the present invention intravenously and orally.
(§4) For intravenous administration (2 ml/kg), those compounds in which R1 =H (see formula I) were dissolved in an aqueous 1% NaHCO3 solution whereas for oral administration (4 ml/Kg) they were either suspended in 0.5% carboxymethylcellulose or dissolved in an aqueous 3% NaHCO3 solution.

Data set [3] deals with passive cutaneous anaphylaxis. Particulars: oral, cited from earlier work.
Data set [4] has as its system passive cutaneous anaphylaxis. The data set can be described thus: PCA test on the rat, time response curve after oral administration. It counts as in vivo, rat (male Sprague Dawley). Particulars: oral; for inhibition in vivo at 1 mg/kg / inhibition in vivo at 100 mg/kg: Rattus norvegicus; for inhibition in vivo at 1 mg/kg: 1 mg/kg/os; for inhibition in vivo at 100 mg/kg: 100 mg/kg/os. As for the experimental part: as §1, §2, §3, §4

In data set [5] the test system is passive cutaneous anaphylaxis. The data set is described as follows: PCA test on the rat, oral administration before challenge with antigen. Particulars: for ED50: Table 2, oral administration, read-out: ED50 (conf. lim) P = 0.05; for oral bioavailability (in words): from ED50 os / ED50 iv comparison. It is filed as in vivo, rat (male Sprague Dawley). As for the experimental part: The serum, obtained from rats actively sensitized with ovalbumin (antigen) and suitably diluted, was injected intradermically into the shaven back of male Sprague Dawley rats (2 wheals per rat). The rats were treated intravenously after 24 hours with a solution of ovalbumin and Evans blue. Thirty minutes later they were killed and the diameter and intensity of the blue ring formed at the site of the intradermic injection were measured. […] The pharmacological screening was effected by administering the compounds of the present invention intravenously and orally. For intravenous administration (2 ml/kg), those compounds in which R1 =H (see formula I) were dissolved in an aqueous 1% NaHCO3 solution whereas for oral administration (4 ml/Kg) they were either suspended in 0.5% carboxymethylcellulose or dissolved in an aqueous 3% NaHCO3 solution.

The next data set relates to mouse. The data set is described as follows: Acute toxicity in the mouse, oral administration. Particulars: oral, 1000 mg/kg/os, 8 treated. It is filed as in vivo. As for the experimental part:
(§5) Acute toxicity was evaluated in the mouse by administering the compounds orally at scalar doses to a maximum of 1000 mg/kg to evaluate the 50% lethal dose (LD50). The compounds were administered in carboxymethylcellulose (0.5%) in a volume of […] to male mice (Swiss stock) of average weight 20 g.

The nature of data set [6]: Acute toxicity in the mouse, oral administration. It is filed as in vivo. Particulars: mouse, in vivo, po, 1000 mg/kg, oral, 1000 mg/kg/os; read-out: mortality (%EAD). As for the experimental part: as §5
The mark [7] stands for this setting: 5 min, 5 minutes before challenge.
The mark [8] stands for this setting: 0.25 h, 15 minutes before challenge.
Setting [9] is: 0.5 h, 30 minutes before challenge.
[10] abbreviates: 1 h, 60 minutes before challenge.
The mark [11] stands for this setting: 2 h, 120 minutes before challenge.

SMILES strings stand for the structures. Like-named read-outs stand apart in the source and are kept apart here.

Take `O=C([O-])c1cc(=O)c2c(OCC(O)COc3cccc4oc(C(=O)[O-])cc(=O)c34)cccc2o1.[Na+].[Na+]` [DSCG, Disodium chromoglycate, reference compound]: the “absorption at the gastro-enteric level” value in data set [1] is reported as “not being absorbed at the gastro-enteric level”. The “inhibition (%)” value in data set [2] (0.1 mg/kg) is recorded as 28.1%; in data set [2] (0.3 mg/kg) it was 33.6%; in data set [2] (1 mg/kg), 70.0%; in data set [2] (3 mg/kg), 100%. The “ED50 (conf. lim) P = 0.05” value in data set [2] is given as 0.52 mg/kg/iv; in data set [2] (listed as D.S.C.G.), 0.52 (0.47-0.83) mg/kg/iv.
In the case of `Cc1cccc(C(=O)Nc2nn[nH]n2)n1` [TA 57-07, 6-methyl-N-(1H-tetrazol-5-yl)-2-pyridinecarboxyamide, reference compound], the ED50 in data set [3] (5 minutes before challenge, Tsuzurahara et al.) was 0.9 (0.6-1.6) mg/kg/os; in data set [5] (Rattus norvegicus, po, 5 min, 5 minutes before challenge) it was 0.93 mg/kg; in data set [2] (Rattus norvegicus, iv, read-out: ED50 (conf. lim) P = 0.05), 0.059 mg/kg. In addition, the inhibition in vivo at 1 mg/kg in data set [4] (setting [7]) amounted to 86.8%; in data set [4] (setting [8]), 43.7%; in data set [4] (setting [9]) it was 37.6%; in data set [4] (setting [10]) it was 17.3%; in data set [4] (setting [11]) it was 4.1%; in data set [5] (Rattus norvegicus, po, 1 mg/kg, 5 minutes before challenge) it was 57.7%. The compound also displayed an inhibition in vivo at 0.3 mg/kg in data set [5] (Rattus norvegicus, po, 0.3 mg/kg, 5 minutes before challenge) of 12.7%. Also, in data set [5] (Rattus norvegicus, po, 3 mg/kg, 5 minutes before challenge, read-out: inhibition (%)), the inhibition in vivo at 3 mg/kg came to 82.5%. The “oral bioavailability (in words)” value in data set [5] is given as “less bioavailable when administered orally than the compounds of the present invention”. Moreover, the “ED50 OS/ED50 iv” value in data set [5] (oral 5 minutes before challenge / i.v. immediately before challenge) was 15.76. Further, the “No. (dead)” value with mouse is 4. Besides, the mortality (as a rule, the share of the test organisms that died) in data set [6] is 50%.
Take `COc1ccc(/C=C/C(=O)Nc2ccccc2C(=O)O)cc1OC` [Tranilast, N-(3', 4'-dimethoxycinnamoyl) anthranylic acid, reference compound]: the ED50 in data set [3] (2 hours before challenge, Koda et al.) was 150 (88, 3-255) mg/kg/os; in data set [5] (Rattus norvegicus, po, 0.25 h, 15 minutes before challenge) it was 115 mg/kg. The inhibition in vivo at 100 mg/kg in data set [4] (setting [7]) is 17.9%; in data set [4] (setting [8]), 37.4%; in data set [4] (setting [9]) it was 20.5%; in data set [4] (setting [10]), 20.5%; in data set [4] (setting [11]) it was 13.7%. In addition, the “time of administration before challenge giving the peak (maximum) effect” value in data set [4] worked out at 15 min. Besides, the “oral bioavailability (in words)” value in data set [5] is “less bioavailable when administered orally than the compounds of the present invention”. Also, the “activity compared with Tranilast / compounds of the invention (in words)” value in data set [5] (oral) is “less active by at least one order of magnitude”. The “No. (dead)” value in the data set on mouse was determined as 7. In data set [6], the mortality amounted to 87.5%.

The record behind these values is patent US5039684A, “Tetrazole amide derivatives of heterocyclic alkenyl acid and their use as antiallergic substances” (Valeas S. p. A., priority 1989, dated 1991).
